Where “and” joins values, the source holds several entries; their conditions need not be identical. Equal entries are not always repeated. Toxic doses and inconclusive results are not listed. The calls were made as follows: active = survival T/C of 150% or more; inactive = T/C below 125% in these data.
System: P388 leukemia ip, CD2F1 mice, survival T/C
Test: NCI In Vivo Anticancer Drug Screen. Data for tumor model P388 Leukemia (intraperitoneal) in CD2F1 (CDF1) mice
Details: endpoint: median survival time, higher = longer survival
How it was run: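 Mice carrying the transplanted tumor received test compound or vehicle. Survival was recorded in each group, and the value is the treated-group measurement divided by that of the vehicle-treated control group.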

[1] = dose: 50.0 mg/kg/injection, schedule: Q01DX009 (ip), vehicle: saline with Tween-80
[2] = dose: 100.0 mg/kg/injection, schedule: Q01DX009 (ip), vehicle: saline with Tween-80
[3] = dose: 200.0 mg/kg/injection, schedule: Q01DX009 (ip), vehicle: saline with Tween-80
[4] = dose: 50.0 mg/kg/injection, schedule: Q04DX003 (ip), vehicle: saline with Tween-80
[5] = dose: 100.0 mg/kg/injection, schedule: Q04DX003 (ip), vehicle: saline with Tween-80
[6] = dose: 50.0 mg/kg/injection, schedule: Q01DX005 (ip), vehicle: saline with Tween-80
[7] = dose: 200.0 mg/kg/injection, schedule: Q01DX005 (ip), vehicle: saline with Tween-80
[8] = dose: 60.0 mg/kg/injection, schedule: Q01DX005 (ip), vehicle: saline with Tween-80
[9] = dose: 120.0 mg/kg/injection, schedule: Q01DX005 (ip), vehicle: saline with Tween-80
[10] = dose: 240.0 mg/kg/injection, schedule: Q01DX005 (ip), vehicle: saline with Tween-80
[11] = dose: 50.0 mg/kg/injection, schedule: Q01DX005 (ip), vehicle: Klucel (hydroxypropylcellulose) (HPC)
[12] = dose: 100.0 mg/kg/injection, schedule: Q01DX005 (ip), vehicle: Klucel (hydroxypropylcellulose) (HPC)
[13] = dose: 200.0 mg/kg/injection, schedule: Q01DX005 (ip), vehicle: Klucel (hydroxypropylcellulose) (HPC)

Measured: T/C

CCCCCCCCCCCCCC[N+]1(CC)CCCCC1
inactive: dose: 0.19 mg/kg/injection, schedule: Q01DX009 (ip), vehicle: saline 113 % of control and 115 % of control | dose: 0.39 mg/kg/injection, schedule: Q01DX009 (ip), vehicle: saline 111 % of control and 113 % of control and 118 % of control | dose: 0.78 mg/kg/injection, schedule: Q01DX009 (ip), vehicle: saline 120 % of control and 94 % of control | dose: 1.56 mg/kg/injection, schedule: Q01DX009 (ip), vehicle: saline 109 % of control | dose: 1.56 mg/kg/injection, schedule: Q04DX003 (ip), vehicle: saline 113 % of control

O=C(O)c1c[nH]c2ccc([N+](=O)[O-])cc2c1=O
inactive: dose: 0.63 mg/kg/injection, schedule: Q01DX009 (ip), vehicle: Klucel (hydroxypropylcellulose) (HPC) 110 % of control | dose: 1.25 mg/kg/injection, schedule: Q01DX009 (ip), vehicle: Klucel (hydroxypropylcellulose) (HPC) 94 % of control | dose: 2.5 mg/kg/injection, schedule: Q01DX009 (ip), vehicle: Klucel (hydroxypropylcellulose) (HPC) 101 % of control | dose: 5.0 mg/kg/injection, schedule: Q01DX009 (ip), vehicle: Klucel (hydroxypropylcellulose) (HPC) 104 % of control | dose: 10.0 mg/kg/injection, schedule: Q01DX009 (ip), vehicle: Klucel (hydroxypropylcellulose) (HPC) 100 % of control | dose: 90.0 mg/kg/injection, schedule: Q01DX009 (ip), vehicle: Klucel (hydroxypropylcellulose) (HPC) 86 % of control

CC(Nc1cccc([N+](=O)[O-])c1)S(=O)(=O)O (stereo unspecified)
inactive: dose: 50.0 mg/kg/injection, schedule: Q01DX009 (ip), vehicle: saline 97 % of control | dose: 100.0 mg/kg/injection, schedule: Q01DX009 (ip), vehicle: saline 100 % of control | dose: 200.0 mg/kg/injection, schedule: Q01DX009 (ip), vehicle: saline 97 % of control

CC(C(=O)O)N1C(=O)c2ccccc2C1=O (stereo unspecified)
inactive: dose: 4.0 mg/kg/injection, schedule: Q01DX009 (ip), vehicle: water 105 % of control | dose: 8.0 mg/kg/injection, schedule: Q01DX009 (ip), vehicle: water 100 % of control | dose: 16.0 mg/kg/injection, schedule: Q01DX009 (ip), vehicle: water 103 % of control | dose: 32.0 mg/kg/injection, schedule: Q01DX009 (ip), vehicle: water 100 % of control | dose: 64.0 mg/kg/injection, schedule: Q01DX009 (ip), vehicle: water 99 % of control

CCCCCCCCCCCC(=O)N(CCOC(=O)c1ccccc1)CCOC(=O)c1ccccc1
inactive: [1] 101 % of control | [2] 93 % of control | [3] 107 % of control

NC(Cc1cccc(F)c1)c1nn[nH]n1 (stereo unspecified)
inactive: [4] 100 % of control | [5] 93 % of control

O=c1ccnc(Sc2ccc([N+](=O)[O-])cc2[N+](=O)[O-])[nH]1
inactive: [5] 99 % of control | dose: 200.0 mg/kg/injection, schedule: Q04DX003 (ip), vehicle: saline with Tween-80 99 % of control

CCc1c(C)[nH]n(C(N)=NCCSCc2nc[nH]c2C)c1=O
inactive: dose: 60.0 mg/kg/injection, schedule: Q01DX005 (ip), vehicle: Klucel (hydroxypropylcellulose) (HPC) 108 % of control | dose: 120.0 mg/kg/injection, schedule: Q01DX005 (ip), vehicle: Klucel (hydroxypropylcellulose) (HPC) 100 % of control | dose: 240.0 mg/kg/injection, schedule: Q01DX005 (ip), vehicle: Klucel (hydroxypropylcellulose) (HPC) 91 % of control

COc1cc(-c2ccc(N=Nc3ccc(N)nc3N)c(OC)c2)ccc1N=Nc1ccc(N)nc1N
inactive: [6] 101 % of control | dose: 100.0 mg/kg/injection, schedule: Q01DX005 (ip), vehicle: saline with Tween-80 104 % of control | [7] 90 % of control

CN1c2ccccc2S(=O)(=O)n2c(COc3ccccc3)nnc21
inactive: dose: 12.5 mg/kg/injection, schedule: Q01DX005 (ip), vehicle: saline with Tween-80 97 % of control | dose: 25.0 mg/kg/injection, schedule: Q01DX005 (ip), vehicle: saline with Tween-80 97 % of control | [6] 100 % of control and 91 % of control | [7] 88 % of control

Cc1cc([N+](=O)[O-])c(Cl)cc1NS(=O)(=O)c1ccccc1
inactive: [4] 100 % of control | [5] 95 % of control

CC[C@@H](O)[C@H](CC[Se]c1ccccc1)C(=O)[C@H](O)C1CCCCC1
inactive: [8] 107 % of control | [9] 105 % of control | [10] 108 % of control

CCOC(=O)c1cccc(C(=O)OCC)c1
inactive: [1] 99 % of control | [2] 106 % of control | [3] 108 % of control

Cc1cc(N=Cc2ccc(C=Nc3ccc(Br)c(C)c3)cc2)ccc1Br
inactive: dose: 50.0 mg/kg/injection, schedule: Q01DX009 (ip), vehicle: Klucel (hydroxypropylcellulose) (HPC) 101 % of control | dose: 100.0 mg/kg/injection, schedule: Q01DX009 (ip), vehicle: Klucel (hydroxypropylcellulose) (HPC) 93 % of control | dose: 200.0 mg/kg/injection, schedule: Q01DX009 (ip), vehicle: Klucel (hydroxypropylcellulose) (HPC) 92 % of control

Nc1cc2ccncc2c2ccccc12
inactive: dose: 50.0 mg/kg/injection, schedule: Q04DX003 (ip), vehicle: saline sonified 100 % of control | dose: 100.0 mg/kg/injection, schedule: Q04DX003 (ip), vehicle: saline sonified 90 % of control | dose: 200.0 mg/kg/injection, schedule: Q04DX003 (ip), vehicle: saline sonified 95 % of control

Clc1ccc(C(c2ccccc2)N2CCNCC2)cc1 (stereo unspecified)
inactive: dose: 25.0 mg/kg/injection, schedule: Q04DX003 (ip), vehicle: saline with Tween-80 99 % of control | [4] 113 % of control | [5] 102 % of control

CCCCCCOCCOCCCN1C(=O)C2C3C=CC(C3)C2(Cl)C1=O (stereo unspecified)
inactive: dose: 50.0 mg/kg/injection, schedule: Q01DX005 (ip), vehicle: distilled water + Tween-80 + alcohol 102 % of control | dose: 100.0 mg/kg/injection, schedule: Q01DX005 (ip), vehicle: distilled water + Tween-80 + alcohol 105 % of control | dose: 200.0 mg/kg/injection, schedule: Q01DX005 (ip), vehicle: distilled water + Tween-80 + alcohol 100 % of control

CC(C(=O)c1ccccc1)c1nc2nnc(N)n2[nH]c1=O (stereo unspecified)
inactive: dose: 60.0 mg/kg/injection, schedule: Q01DX005 (ip), vehicle: saline 95 % of control | dose: 120.0 mg/kg/injection, schedule: Q01DX005 (ip), vehicle: saline 100 % of control | dose: 240.0 mg/kg/injection, schedule: Q01DX005 (ip), vehicle: saline 95 % of control

COc1ccc2nccc(C(=O)CCC3CCN(C(=O)c4ccc([N+](=O)[O-])cc4)CC3C(Br)CBr)c2c1 (stereo unspecified)
inactive: dose: 100.0 mg/kg/injection, schedule: Q04DX002 (ip), vehicle: saline with Tween-80 108 % of control | dose: 200.0 mg/kg/injection, schedule: Q04DX002 (ip), vehicle: saline with Tween-80 105 % of control

CCOC(=O)C(=O)Nc1cccc(NC(=O)C(=O)OCC)n1
inactive: [8] 100 % of control | [9] 94 % of control

S=C1NCN(CC2CC2)CN1
inactive: [8] 97 % of control | [9] 96 % of control | [10] 94 % of control

O=c1oc(-c2ccccc2)nc2c1CCCS2
inactive: [11] 100 % of control | [12] 99 % of control and 103 % of control | [13] 103 % of control and 89 % of control

O=C(O)c1ccc(S(=O)(=O)OCCCl)cc1
inactive: dose: 6.25 mg/kg/injection, schedule: Q01DX009 (ip), vehicle: Klucel (hydroxypropylcellulose) (HPC) 107 % of control | dose: 12.5 mg/kg/injection, schedule: Q01DX009 (ip), vehicle: Klucel (hydroxypropylcellulose) (HPC) 100 % of control | dose: 25.0 mg/kg/injection, schedule: Q01DX009 (ip), vehicle: Klucel (hydroxypropylcellulose) (HPC) 110 % of control

CCN(CC)c1ccc2cc(S(=O)(=O)c3ccccc3)c(=O)oc2c1
inactive: [8] 91 % of control | [9] 86 % of control

CN(C)c1ccc(C(=O)C2(Cl)CCCC(C)(C)C2)cc1 (stereo unspecified)
inactive: dose: 100.0 mg/kg/injection, schedule: Q04DX002 (ip), vehicle: Klucel (hydroxypropylcellulose) (HPC) 102 % of control | dose: 200.0 mg/kg/injection, schedule: Q04DX002 (ip), vehicle: Klucel (hydroxypropylcellulose) (HPC) 99 % of control | dose: 400.0 mg/kg/injection, schedule: Q04DX002 (ip), vehicle: Klucel (hydroxypropylcellulose) (HPC) 94 % of control

CC12N=C1CCCCCCCCCCCC2=O (stereo unspecified)
inactive: [8] 101 % of control | [9] 100 % of control | [10] 108 % of control

O=c1oc(-c2cccc(-c3nc4c(c(=O)o3)CCS4)c2)nc2c1CCS2
inactive: [11] 97 % of control | [12] 100 % of control | [13] 91 % of control

C1CN2CCN3CCCN(CCN(C1)C2)C3
inactive: dose: 12.5 mg/kg/injection, schedule: Q01DX005 (ip), vehicle: saline 102 % of control | dose: 25.0 mg/kg/injection, schedule: Q01DX005 (ip), vehicle: saline 107 % of control | [6] 101 % of control
